These results are taken from patent US11779602B2, “Methods of use for CAR T cells” (ENDOCYTE, INC., priority 2018, dated 2023).

The subject of experiment [1] is MDA-MB-231 tumors. Briefly: CAR-T/EC17 therapy, fixed dose and dose de-escalation, in mice bearing MDA-MB-231 tumors. It counts as in vivo. The settings on record: 4M5.3-CAR-T 30 million cells, EC17 de-escalation. The source says: The effect of EC17 dose de-escalation was investigated on the anti-tumor activity and the toxicity (body weight changes) of CAR-T therapy. Two different anti-fluorescein scFv were used for the CAR constructions (FIG. 1). The first construct of CAR contains the following domains: antiFL(FITC-E2)scFv-IgG4 hinge (CH2 (L235D, N297Q)-CH3)-CD28 TM-4-1BB-CD3z-T2A-EGFRt. The second construct of CAR contains the following domains: antiFL(FITC-4M5.3)scFv-IgG4 hinge (CH2 (L235D, N297Q)-CH3)-CD28 TM-4-1BB-CD3z-T2A-EGFRt. The nucleic acid sequence and amino acid sequence of the CAR of each construct are shown as SEQ ID NOS:1 to 4. Human T cells were isolated, activated and transduced with a lentiviral vector carrying the appropriate CAR gene. CD4+ T cells with the CAR-modification and CD8+ T cells with the CAR-modification were isolated and cultured separately in vitro for about 7 days. CD4+ CAR-T cells and CD8+ CAR-T cells were mixed at a 1:1 ratio before i.v. administration for animal studies.
The second construct 4M5.3-CAR (antiFL(FITC-4M5.3) scFv-IgG4 hinge (CH2 (L235D, N297Q)-CH3)-CD28 TM-4-1BB-CD3z-T2A-EGFRt) was also evaluated. Mice bearing MDA-MB-231 tumors (150-250 mm^3) were used for in vivo studies to evaluate 4M5.3-CAR-T cells. […]

Experiment [2] has as its system MDA-MB-231 tumors. Briefly: EC17/E2-CAR T-cell therapy in NSG mice with and without MDA-MB-231 tumors. It counts as in vivo. The procedure: MDA-MB-231 tumor cells were grown in folate-deficient RPMI 1640 with 5-10% FBS at 37° C. in a 5% CO2 humidified atmosphere. MDA-MB-231 tumor cells were inoculated subcutaneously at 2.5×10^6 cells per animal. Only […] mice were inoculated and the remaining 22 mice were kept tumor-free.
EGFRt-sorted anti-FITC E2 scFv-CAR T cells were frozen in a T-cell freezing medium. Vials of frozen CAR-T cells were immediately stored at −80° C. The CAR-T cells were quickly thawed at 37° C., washed twice with PBS, and used for animal injection at 10 million viable EGFRt+ E2 CAR-T cells (CD4/CD8 at ˜1:1) per animal. A small aliquot was taken on the day infusion for flow cytometric analysis of E2-CAR T-cell phenotypes.
Mouse blood samples were processed for plasma and stored at −20° C. until use. A human TH1 cytokine panel (Biolegend, Cat. No. 740009) and a human hematopoietic stem cell cytokine panel (Biolegend, Cat. No. 740610) was used to detect human cytokines in the mouse blood. A mouse 13-plex inflammatory cytokine panel (Biolengend, No. 740150) was used to detect mouse cytokines. All analyses were performed per the manufacturer's instructions.
Whole blood cell analysis: Plasma was removed from predetermined volumes of whole EDTA treated blood and RBCs were lysed with RBC lysis solution. […] Determination of the concentration of CAR T cells in each blood sample was calculated according to Invitrogen's instructions. CAR T cells were identified as human CD3ε+ EGFRt+ events and easily distinguished and counted using the Kaluza™ flow cytometry software. The number of CAR T cells in the circulation of each infused mouse was then represented on the graphs as the total number of CAR T cells per 100 μL of whole blood analyzed. Statistical significance was determined by utilizing an unpaired, two-tailed, students t-test with significance set at p<0.05. […]

For `NC1=NC2N=CC(CNc3ccc(C(=O)N[C@@H](CCC(=O)NCCNC(=S)Nc4ccc(-c5c6ccc(=O)cc-6oc6cc(O)ccc56)c(C(=O)O)c4)C(=O)O)cc3)=NC2C(=O)N1` (some centres unmarked) [EC17, FA-(γ)-ethylenediamine-FITC], in the experiment with MDA-MB-231 tumors [1], the “EC17 dose dependence of anti-tumor activity and body weight loss” value was “dose dependent anti-tumor activity and body weight loss”. In addition, in the experiment with MDA-MB-231 tumors [2] (10 million E2 CAR-T cells, EC17 500 nmol/kg days 2 and 10, plasma 20 hours after second dose), the “IFN-γ production, tumor-bearing vs tumor-free mice” value is listed as 23 fold. For the same compound, in the experiment with MDA-MB-231 tumors [2] (cohorts which received EC17 stimulation), the “increase in circulating E2 CAR T cells per 100 uL whole blood vs cohorts without EC17” value is reported as “more than 10 fold”. Besides, in the experiment on MDA-MB-231 tumors [2] (post EC17 SIW500×2 doses), the “CAR-T cell expansion by FACS in tumor-free mice” value is “no detectable CAR-T cell expansion”. Besides, the “cytokine production (IL2, IFN-γ, IL-10) in tumor-bearing mice” value with MDA-MB-231 tumors [2] (with vs without EC17 dose) is reported as “EC17-dependent”.
